Read-outs that look alike come from different tables or passages of the source.
Tested on: H.Ep-2 cell line
Assay: Cytotoxicity in vitro, cell survival by trypan blue exclusion
Format: cell-based
Details: Homo sapiens, read-out: IC50 (dose required to give 50% cell survival)
Procedure: Cytotoxicity in vitro. The human epidermoid carcinoma cell line H.Ep-2 was originally obtained from a metastatic nodule in the neck of a patient with a primary tumour of the larynx. it was established in tissue culture after two generations in X-irradiated, cortisone-treated rats. Immunocytochemistry has shown the cells to bind the H17E2 antibody, but not HMFGl, which was used as a negative control in these studies. Cells were cultured in RPMI 1640 tissue culture medium supplemented with 10% foetal calf serum (Gibco Ltd, Paisley, Scotland). For cell survival experiments, after harvesting with 0.02% EDTA, 5×10^5 cells were plated in quadruplicate into 25-cm^2 Falcon flasks (Becton Dickinson, N.J., USA). Twenty-four hours later the cytotoxic agent was added (either amygdalin alone, β-glucosidase alone, amygdalin plus β-glucosidase, potassium cyanide alone, amygdalin plus H17E2β-glucosidase conjugate or amygdalin plus HMFGl-β-glucosidase conjugate). After 24 h exposure, the medium containing the drug was replaced with fresh medium and the cells allowed to grow for a further 24 h before counting by haemacytometry, using trypan blue exclusion as the criterion for cell integrity.

N#C[C@H](O[C@@H]1O[C@H](CO[C@@H]2O[C@H](CO)[C@@H](O)[C@H](O)[C@H]2O)[C@@H](O)[C@H](O)[C@H]1O)c1ccccc1 [amygdalin, D-mandelonitrile-β-D-glucosido-6-β-D-glycoside]
IC50 (HEp-2, in the presence of 0.35 μM β-glucosidase): 600 ± 300 µM
IC50 (HEp-2, in the presence of 3.5 μM β-glucosidase): 500 ± 200 µM
